Data published in PubChem BioAssay (NCI).
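Assay format: 96-well plates, 48-hour exposure. The concentration for full growth arrest is given as TGI.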

Legend:
Assay in all cases: NCI anticancer screen, dose series, 48 h
786-0 renal = test system: 786-0 renal
A498 renal = test system: A498 renal
A549 NSCLC = test system: A549 NSCLC
CAKI-1 renal = test system: CAKI-1 renal
CCRF-CEM leukemia = test system: CCRF-CEM leukemia
COLO 205 colon = test system: COLO 205 colon
DLD-1 colon = test system: DLD-1 colon
DMS 114 small cell lung = test system: DMS 114 small cell lung
DMS 273 small cell lung = test system: DMS 273 small cell lung
EKVX NSCLC = test system: EKVX NSCLC
HCC-2998 colon = test system: HCC-2998 colon
HCT-116 colon = test system: HCT-116 colon
HCT-15 colon = test system: HCT-15 colon
HL-60(TB) leukemia = test system: HL-60(TB) leukemia
HOP-18 NSCLC = test system: HOP-18 NSCLC
HOP-62 NSCLC = test system: HOP-62 NSCLC
HOP-92 NSCLC = test system: HOP-92 NSCLC
HT29 colon = test system: HT29 colon
IGROV1 ovarian = test system: IGROV1 ovarian
K-562 leukemia = test system: K-562 leukemia
KM12 colon = test system: KM12 colon
KM20L2 colon = test system: KM20L2 colon
LOX IMVI melanoma = test system: LOX IMVI melanoma
M14 melanoma = test system: M14 melanoma
M19-MEL melanoma = test system: M19-MEL melanoma
MALME-3M melanoma = test system: MALME-3M melanoma
MOLT-4 leukemia = test system: MOLT-4 leukemia
NCI-H226 lung = test system: NCI-H226 lung
NCI-H23 lung = test system: NCI-H23 lung
NCI-H460 lung = test system: NCI-H460 lung
NCI-H522 lung = test system: NCI-H522 lung
OVCAR-3 ovarian = test system: OVCAR-3 ovarian
OVCAR-4 ovarian = test system: OVCAR-4 ovarian
OVCAR-5 ovarian = test system: OVCAR-5 ovarian
OVCAR-8 ovarian = test system: OVCAR-8 ovarian
RPMI-8226 leukemia = test system: RPMI-8226 leukemia
RXF 393 renal = test system: RXF 393 renal
SF-268 CNS = test system: SF-268 CNS
SF-295 CNS = test system: SF-295 CNS
SF-539 CNS = test system: SF-539 CNS
SK-MEL-5 melanoma = test system: SK-MEL-5 melanoma
SK-OV-3 ovarian = test system: SK-OV-3 ovarian
SN12C renal = test system: SN12C renal
SNB-19 CNS = test system: SNB-19 CNS
SNB-75 CNS = test system: SNB-75 CNS
SNB-78 CNS = test system: SNB-78 CNS
SR leukemia = test system: SR leukemia
SW-620 colon = test system: SW-620 colon
TK-10 renal = test system: TK-10 renal
U251 CNS = test system: U251 CNS
UACC-257 melanoma = test system: UACC-257 melanoma
UACC-62 melanoma = test system: UACC-62 melanoma
UO-31 renal = test system: UO-31 renal
ACHN renal = test system: ACHN renal
BT-549 breast = test system: BT-549 breast
DU-145 prostate = test system: DU-145 prostate
HS 578T breast = test system: HS 578T breast
MCF7 breast = test system: MCF7 breast
MDA-MB-231 breast = test system: MDA-MB-231 breast
MDA-MB-435 = test system: MDA-MB-435
MDA-N = test system: MDA-N
NCI/ADR-RES ovarian = test system: NCI/ADR-RES ovarian
PC-3 prostate = test system: PC-3 prostate
SK-MEL-2 melanoma = test system: SK-MEL-2 melanoma
SK-MEL-28 melanoma = test system: SK-MEL-28 melanoma
T-47D breast = test system: T-47D breast

Nc1cccc2c1-c1c(cccc1[N+](=O)[O-])C2=O
TGI (786-0 renal): > 100 µM | TGI (A498 renal): > 100 µM | TGI (A549 NSCLC): > 100 µM | TGI (CAKI-1 renal): > 100 µM | TGI (CCRF-CEM leukemia): > 100 µM | TGI (COLO 205 colon): > 100 µM | TGI (DLD-1 colon): > 100 µM | TGI (DMS 114 small cell lung): > 100 µM | TGI (DMS 273 small cell lung): > 100 µM | TGI (EKVX NSCLC): > 100 µM | TGI (HCC-2998 colon): > 100 µM | TGI (HCT-116 colon): > 100 µM | TGI (HCT-15 colon): > 100 µM | TGI (HL-60(TB) leukemia): > 100 µM | TGI (HOP-18 NSCLC): > 100 µM | TGI (HOP-62 NSCLC): > 100 µM | TGI (HOP-92 NSCLC): > 100 µM | TGI (HT29 colon): > 100 µM | TGI (IGROV1 ovarian): > 100 µM | TGI (K-562 leukemia): > 100 µM | TGI (KM12 colon): > 100 µM | TGI (KM20L2 colon): > 100 µM | TGI (LOX IMVI melanoma): > 100 µM | TGI (M14 melanoma): > 100 µM | TGI (M19-MEL melanoma): > 100 µM | TGI (MALME-3M melanoma): > 100 µM | TGI (MOLT-4 leukemia): > 100 µM | TGI (NCI-H226 lung): > 100 µM | TGI (NCI-H23 lung): > 100 µM | TGI (NCI-H460 lung): > 100 µM | TGI (NCI-H522 lung): > 100 µM | TGI (OVCAR-3 ovarian): > 100 µM | TGI (OVCAR-4 ovarian): > 100 µM | TGI (OVCAR-5 ovarian): > 100 µM | TGI (OVCAR-8 ovarian): > 100 µM | TGI (RPMI-8226 leukemia): > 100 µM | TGI (RXF 393 renal): > 100 µM | TGI (SF-268 CNS): > 100 µM | TGI (SF-295 CNS): > 100 µM | TGI (SF-539 CNS): > 100 µM | TGI (SK-MEL-5 melanoma): > 100 µM | TGI (SK-OV-3 ovarian): > 100 µM | TGI (SN12C renal): > 100 µM | TGI (SNB-19 CNS): > 100 µM | TGI (SNB-75 CNS): > 100 µM | TGI (SNB-78 CNS): > 100 µM | TGI (SR leukemia): > 100 µM | TGI (SW-620 colon): > 100 µM | TGI (TK-10 renal): > 100 µM | TGI (U251 CNS): > 100 µM | TGI (UACC-257 melanoma): > 100 µM | TGI (UACC-62 melanoma): > 100 µM | TGI (UO-31 renal): 0.469 µM

CC(=O)OCC1(C)C(O)CCC2(C)C1CCC1CC3CC12CCC3(O)CO (stereo unspecified)
TGI (786-0 renal): > 100 µM | TGI (A498 renal): 8.59 µM | TGI (A549 NSCLC): > 100 µM | TGI (ACHN renal): > 100 µM | TGI (BT-549 breast): > 100 µM | TGI (CAKI-1 renal): > 100 µM | TGI (CCRF-CEM leukemia): > 100 µM | TGI (COLO 205 colon): > 100 µM | TGI (DU-145 prostate): > 100 µM | TGI (EKVX NSCLC): > 100 µM | TGI (HCC-2998 colon): > 100 µM | TGI (HCT-116 colon): > 100 µM | TGI (HCT-15 colon): > 100 µM | TGI (HL-60(TB) leukemia): > 100 µM | TGI (HOP-62 NSCLC): > 100 µM | TGI (HOP-92 NSCLC): > 100 µM | TGI (HS 578T breast): > 100 µM | TGI (HT29 colon): > 100 µM | TGI (IGROV1 ovarian): > 100 µM | TGI (K-562 leukemia): > 100 µM | TGI (KM12 colon): > 100 µM | TGI (LOX IMVI melanoma): > 100 µM | TGI (M14 melanoma): > 100 µM | TGI (MALME-3M melanoma): > 100 µM | TGI (MCF7 breast): > 100 µM | TGI (MDA-MB-231 breast): > 100 µM | TGI (MDA-MB-435): > 100 µM | TGI (MDA-N): > 100 µM | TGI (MOLT-4 leukemia): > 100 µM | TGI (NCI-H226 lung): > 100 µM | TGI (NCI-H23 lung): > 100 µM | TGI (NCI-H460 lung): > 100 µM | TGI (NCI-H522 lung): > 100 µM | TGI (NCI/ADR-RES ovarian): > 100 µM | TGI (OVCAR-3 ovarian): > 100 µM | TGI (OVCAR-4 ovarian): > 100 µM | TGI (OVCAR-5 ovarian): > 100 µM | TGI (OVCAR-8 ovarian): > 100 µM | TGI (PC-3 prostate): > 100 µM | TGI (RPMI-8226 leukemia): > 100 µM | TGI (RXF 393 renal): > 100 µM | TGI (SF-268 CNS): > 100 µM | TGI (SF-295 CNS): > 100 µM | TGI (SF-539 CNS): > 100 µM | TGI (SK-MEL-2 melanoma): > 100 µM | TGI (SK-MEL-28 melanoma): > 100 µM | TGI (SK-MEL-5 melanoma): > 100 µM | TGI (SK-OV-3 ovarian): > 100 µM | TGI (SN12C renal): > 100 µM | TGI (SNB-19 CNS): > 100 µM | TGI (SNB-75 CNS): > 100 µM | TGI (SR leukemia): > 29.4 µM | TGI (SW-620 colon): > 100 µM | TGI (T-47D breast): > 100 µM | TGI (TK-10 renal): > 100 µM | TGI (U251 CNS): > 100 µM | TGI (UACC-257 melanoma): > 100 µM | TGI (UACC-62 melanoma): > 100 µM | TGI (UO-31 renal): > 100 µM

CCCC(=O)OCC1OC(n2cc(F)c(=O)[nH]c2=O)CC1O (stereo unspecified)
TGI (786-0 renal): > 10 µM | TGI (A498 renal): > 9.04 µM | TGI (A549 NSCLC): > 10 µM | TGI (ACHN renal): > 10 µM | TGI (BT-549 breast): > 10 µM | TGI (CAKI-1 renal): > 10 µM | TGI (CCRF-CEM leukemia): > 10 µM | TGI (COLO 205 colon): > 10 µM | TGI (DU-145 prostate): > 10 µM | TGI (EKVX NSCLC): > 10 µM | TGI (HCC-2998 colon): > 2.97 µM | TGI (HCT-116 colon): > 10 µM | TGI (HCT-15 colon): > 10 µM | TGI (HL-60(TB) leukemia): > 10 µM | TGI (HOP-62 NSCLC): > 10 µM | TGI (HOP-92 NSCLC): > 10 µM | TGI (HS 578T breast): > 10 µM | TGI (HT29 colon): > 10 µM | TGI (IGROV1 ovarian): > 10 µM | TGI (K-562 leukemia): > 10 µM | TGI (KM12 colon): > 10 µM | TGI (LOX IMVI melanoma): > 8.79 µM | TGI (M14 melanoma): > 10 µM | TGI (MALME-3M melanoma): > 10 µM | TGI (MCF7 breast): > 10 µM | TGI (MDA-MB-231 breast): > 10 µM | TGI (MDA-MB-435): > 10 µM | TGI (MDA-N): > 10 µM | TGI (MOLT-4 leukemia): > 10 µM | TGI (NCI-H226 lung): > 10 µM | TGI (NCI-H23 lung): 1.66 µM | TGI (NCI-H460 lung): > 10 µM | TGI (NCI-H522 lung): > 10 µM | TGI (NCI/ADR-RES ovarian): > 10 µM | TGI (OVCAR-3 ovarian): > 10 µM | TGI (OVCAR-4 ovarian): > 10 µM | TGI (OVCAR-5 ovarian): > 10 µM | TGI (OVCAR-8 ovarian): > 10 µM | TGI (PC-3 prostate): > 10 µM | TGI (RPMI-8226 leukemia): > 10 µM | TGI (RXF 393 renal): > 10 µM | TGI (SF-268 CNS): > 10 µM | TGI (SF-295 CNS): > 3.02 µM | TGI (SF-539 CNS): 0.247 µM | TGI (SK-MEL-2 melanoma): > 10 µM | TGI (SK-MEL-28 melanoma): > 10 µM | TGI (SK-MEL-5 melanoma): 1.35 µM | TGI (SK-OV-3 ovarian): > 10 µM | TGI (SN12C renal): > 10 µM | TGI (SNB-19 CNS): > 10 µM | TGI (SNB-75 CNS): 9.55 µM | TGI (SR leukemia): > 10 µM | TGI (SW-620 colon): > 10 µM | TGI (T-47D breast): > 10 µM | TGI (TK-10 renal): > 10 µM | TGI (U251 CNS): > 10 µM | TGI (UACC-257 melanoma): > 10 µM | TGI (UACC-62 melanoma): > 10 µM | TGI (UO-31 renal): > 10 µM
